Measured values reported in patent US20260042764A1, “COMPOSITIONS AND METHODS FOR INHIBITION OF KRAS” (TheRas, Inc., priority 2022, published 2026).

Key:
[1] = molecular target: T1, Avi-KRAS G12D (1-169) GppNHp/RAF1 RBD-3xFLAG (52-151) (Homo sapiens, UniProt P01116, G12D); assay: Raf1-KRAS G12D-GppNHP disruption HTRF assay (Biological Example 1); type: binding
T1 construct: Avi-KRAS G12D (1-169)
Method in brief: (§1)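 First, protein mix in Tris pH 7.5 buffer with NaCl, MgCl2, BSA, Tween and 10% DMSO is incubated 1 h at room temperature. Next, reagent mix is added and incubated a further 1 h at room temperature. Finally, HTRF is read and activity normalized to DMSO.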

[2] = molecular target: T2, Avi-KRAS G12R (1-169) GppNHp/RAF1 RBD-3xFLAG (52-151) (Homo sapiens, UniProt P01116, G12R); assay: Raf1-KRAS G12R-GppNHP disruption HTRF assay (Biological Example 1); type: binding
T2 construct: Avi-KRAS G12R (1-169)
Method in brief: as §1

[3] = molecular target: T3, Avi-KRAS G12V (1-169) GppNHp/RAF1 RBD-3xFLAG (52-151) (Homo sapiens, UniProt P01116, G12V); assay: Raf1-KRAS G12V-GppNHP disruption HTRF assay (Biological Example 1); type: binding
T3 construct: Avi-KRAS G12V (1-169)
Method in brief: as §1

SW620 cells (KRAS G12V) = assay: Cell-based pERK HTRF assay in SW620 cell (Biological Example 4); conditions: Homo sapiens, SW-620, SW620 (KRAS G12V) cells, pERK HTRF
Method in brief: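 This assay measures inhibition of ERK phosphorylation downstream of KRAS G12V in intact SW620 cells. Compounds are applied for 4 h over nine half-log concentrations starting at 1 μM, and pERK is quantified by HTRF.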

GP2d cells (KRAS G12D) = assay: Cell-based pERK HTRF assay in GP2d cell (Biological Example 2); conditions: GP2d, GP2d (KRAS G12D) cells, pERK HTRF
Method in brief: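 60 min compound, 0.25% DMSO, 9-pt half-log curve from 1 μM or 100 nM; DMEM/10% FBS.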

[4] = molecular target: T4, Avi-KRAS WT (1-169) GppNHp/RAF1 RBD-3xFLAG (52-151) (Homo sapiens, UniProt P01116); assay: Raf1-KRAS WT-GppNHP disruption HTRF assay (Biological Example 1); type: binding
T4 construct: Avi-KRAS WT (1-169)
Method in brief: as §1

[5] = KRAS G12D, GppNHp-loaded, Table 11
[6] = KRAS G12R, GppNHp-loaded, Table 11
[7] = KRAS G12V, GppNHp-loaded, Table 11
[8] = KRAS WT, GppNHp-loaded, Table 11
[9] = KRAS G12D, GppNHp-loaded, class symbols
[10] = KRAS G12R, GppNHp-loaded, class symbols
[11] = KRAS G12V, GppNHp-loaded, class symbols
[12] = KRAS WT, GppNHp-loaded, class symbols

T3 sequence (P01116 1-169 isoform P01116-2 G12V): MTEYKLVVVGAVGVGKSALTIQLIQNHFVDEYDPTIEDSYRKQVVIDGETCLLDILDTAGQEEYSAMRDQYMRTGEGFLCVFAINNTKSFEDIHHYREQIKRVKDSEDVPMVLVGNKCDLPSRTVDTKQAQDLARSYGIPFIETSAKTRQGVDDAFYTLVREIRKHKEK
T1 sequence (P01116 1-169 isoform P01116-2 G12D): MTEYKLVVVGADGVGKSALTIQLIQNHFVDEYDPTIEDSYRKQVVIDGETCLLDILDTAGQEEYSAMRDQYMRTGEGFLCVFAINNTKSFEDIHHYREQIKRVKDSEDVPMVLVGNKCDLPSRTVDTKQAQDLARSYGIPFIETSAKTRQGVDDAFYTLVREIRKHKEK
T4 sequence (P01116 1-169 isoform P01116-2): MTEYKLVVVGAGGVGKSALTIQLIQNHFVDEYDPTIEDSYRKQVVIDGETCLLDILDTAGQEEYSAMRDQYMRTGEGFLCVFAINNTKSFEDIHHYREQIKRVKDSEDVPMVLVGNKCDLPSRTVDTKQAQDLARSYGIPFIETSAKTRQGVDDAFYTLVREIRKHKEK
T2 sequence (P01116 1-169 isoform P01116-2 G12R): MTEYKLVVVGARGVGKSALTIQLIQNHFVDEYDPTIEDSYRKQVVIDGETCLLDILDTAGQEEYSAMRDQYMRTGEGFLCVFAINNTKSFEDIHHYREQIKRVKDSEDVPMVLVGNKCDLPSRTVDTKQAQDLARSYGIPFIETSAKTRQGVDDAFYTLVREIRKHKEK

IC50 [1, 5] | IC50 [2, 6] | IC50 [3, 7] | IC50 (SW620 cells (KRAS G12V)) | IC50 (GP2d cells (KRAS G12D)) | IC50 [4, 8] | IC50 ([1]; KRAS G12D-GppNHp/RAF1 RBD HTRF) | IC50 ([2]; KRAS G12R-GppNHp/RAF1 RBD HTRF) | IC50 ([3]; KRAS G12V-GppNHp/RAF1 RBD HTRF) | IC50 ([4]; KRAS WT-GppNHp/RAF1 RBD HTRF) | IC50 [1, 9] | IC50 [2, 10] | IC50 [3, 11] | IC50 (SW620 cells (KRAS G12V); class symbols) | IC50 (GP2d cells (KRAS G12D); class symbols) | IC50 [4, 12] | SMILES
100 to 1000 nM | 100 to 1000 nM | 100 to 1000 nM | 100 to 1000 nM | < 100 nM | 100 to 1000 nM | – | – | – | – | – | – | – | – | – | – | N#Cc1c(N)sc2c(F)ccc(-c3c(C(F)(F)F)cc4c(N5CC(O)C5)nc(OC[C@@]56CCCN5C[C@H](F)C6)nc4c3F)c12 [Compound 215]
100 to 1000 nM | 100 to 1000 nM | 1000 to 10000 nM | < 100 nM | < 100 nM | 100 to 1000 nM | – | – | – | – | – | – | – | – | – | – | N#Cc1c(N)sc2c(F)ccc(-c3c(C(F)(F)F)cc4c(N5CCCCC5)nc(OC[C@@]56CCCN5C[C@H](F)C6)nc4c3F)c12 [Compound 203]
100 to 1000 nM | 100 to 1000 nM | 100 to 1000 nM | < 100 nM | < 100 nM | 100 to 1000 nM | – | – | – | – | – | – | – | – | – | – | N#Cc1c(N)sc2c(F)ccc(-c3c(C(F)(F)F)cc4c(N5CCOC6CC65)nc(OC[C@@]56CCCN5C[C@H](F)C6)nc4c3F)c12 (stereo partly drawn) [Compound 148]
– | – | – | < 100 nM | < 100 nM | – | < 100 nM | < 100 nM | < 100 nM | < 100 nM | – | – | – | – | – | – | CCN(c1nc(OC[C@@]23CCCN2C[C@H](F)C3)nc2c(F)c(-c3ccc(F)c4sc(N)c(C#N)c34)c(C(F)(F)F)cc12)[C@H]1CCN(C(=O)COC)C1 (atropisomer, axis not shown) [Compound 561]
– | – | – | – | – | – | – | – | – | – | < 100 nM | < 100 nM | < 100 nM | < 100 nM | < 100 nM | < 100 nM | CCN(c1nc(OC[C@@]23CCCN2C[C@H](F)C3)nc2c(F)c(-c3ccc(F)c4sc(N)c(C#N)c34)c(C(F)(F)F)cc12)[C@H]1CCN(C(=O)N2C[C@H]3C[C@@H]2CO3)C1 (atropisomer, axis not shown) [Compound 653]
– | – | – | < 100 nM | < 100 nM | – | 100 to 1000 nM | 100 to 1000 nM | 100 to 1000 nM | 100 to 1000 nM | – | – | – | – | – | – | N#Cc1c(N)sc2c(F)ccc(-c3c(C(F)(F)F)cc4c(N5CCc6nocc6C5)nc(OC[C@@]56CCCN5C[C@H](F)C6)nc4c3F)c12 [Compound 457]
100 to 1000 nM | 1000 to 10000 nM | 1000 to 10000 nM | 100 to 1000 nM | 100 to 1000 nM | 100 to 1000 nM | – | – | – | – | – | – | – | – | – | – | CC1(O)CCN(c2nc(OC[C@@]34CCCN3C[C@H](F)C4)nc3c(F)c(-c4ccc(F)c5sc(N)c(C#N)c45)c(C(F)(F)F)cc23)CC1 [Compound 228]
– | – | – | < 100 nM | < 100 nM | – | 1000 to 10000 nM | 1000 to 10000 nM | 1000 to 10000 nM | 1000 to 10000 nM | – | – | – | – | – | – | N#Cc1c(N)sc2c(F)ccc(-c3c(C(F)(F)F)cc4c(N5C[C@@H]6[C@H]5CCN6C(=O)C5CC5)nc(OC[C@@]56CCCN5C[C@H](F)C6)nc4c3F)c12 [Compound 535]
– | – | – | – | – | – | – | – | – | – | < 100 nM | < 100 nM | < 100 nM | < 100 nM | < 100 nM | < 100 nM | CCN(c1nc(OC[C@@]23CCCN2C[C@H](F)C3)nc2c(F)c(-c3ccc(F)c4sc(N)c(C#N)c34)c(C(F)(F)F)cc12)[C@H]1CCN(C(=O)N2C[C@@H]3C[C@H]2CO3)C1 (atropisomer, axis not shown) [Compound 654]
100 to 1000 nM | 100 to 1000 nM | 100 to 1000 nM | < 100 nM | < 100 nM | 100 to 1000 nM | – | – | – | – | – | – | – | – | – | – | CN(C[C@@H](F)CO)c1nc(OC[C@@]23CCCN2C[C@H](F)C3)nc2c(F)c(-c3ccc(F)c4sc(N)c(C#N)c34)c(C(F)(F)F)cc12 [Compound 218]
– | – | – | – | – | – | – | – | – | – | 100 to 1000 nM | 100 to 1000 nM | 100 to 1000 nM | < 100 nM | < 100 nM | 100 to 1000 nM | [2H]C1([2H])CN2C[C@H](F)C[C@]2(COc2nc(N3C[C@H]4C[C@@H]3CO4)c3cc(C(F)(F)F)c(-c4ccc(F)c5sc(N)c(C#N)c45)c(F)c3n2)C1 [Compound 567]
